Experimental data as given in paper PMC10178204, “Peptaibol Analogs Show Potent Antibacterial Activity against Multidrug Resistant Opportunistic Pathogens” (International Journal of Molecular Sciences, 2023).
Values after ≈ are worked out from the molar mass of the structure shown. Like-named read-outs stand apart in the source and are kept apart here. Non-standard residues stand in square brackets, D forms with d. Residues, ends and D or L forms follow the SMILES beside them. *: point of attachment. Leu(ol) = CC(C)C[C@H](N)CO; Octanoyl = CCCCCCCC(=O)*; Api = NC1(C(=O)O)CCNCC1; Aib = CC(C)(N)C(=O)O

What was measured:
[1] = test system: blood agar plate (Columbia CNA Agar); test: Hemolysis on blood agar plate; details: 35 ± 2 °C, 24 h; for Hemolysis (d, diameter of hemolysis zone) / Hemolytic activity (in words): 50 μg spotted on blood agar; for Hemolysis (d, diameter of hemolysis zone): average of triplicate; for Hemolysis (class): 50 μg peptide (2 μL of 25 mg/mL in DMSO) spotted on blood agar, visual, triplicate
Protocol: Hemolysis zones were visually determined and measured. […] For two additional peptides (6 and 15), only a small hemolysis zone (diameter 4–5 mm) was visible, as compared to that of the positive control (Triton X-100, 13 mm).
Briefly, 2 μL of each peptide solution in DMSO (25 mg/mL), corresponding to 50 μg, was spotted on the surface of a blood agar plate (Columbia CNA Agar, Becton Dickinson Italia S.p.A., Florence, Italy). The plate was then incubated at 35 ± 2 °C for 24 h and visually inspected for the presence of hemolysis zones (see Figure S13, Supplementary Material). The experiment was performed in triplicate. Table 2 reports the average value of the diameter of hemolysis zones measured in each individual experiment. Triton X-100 was used as a positive control (diameter of the hemolysis zone: 13 mm), while DMSO was used as a negative control.
Figure S13. Implementation of the hemolysis test as described in Bechlars et al.. After spotting
2 µL (50 µg) of each compound at a random location on the blood agar plate and incubation at 35 ±
2 °C for 24 h, the plates were manually inspected for the presence of hemolysis zones. Triton X-100
and DMSO were used as the positive and negative controls, respectively. Results were interpreted
(1 picture or pasted object on this page, not shown here)

[2] = test system: Acinetobacter baumannii ATCC 17978; details: for MIC Aba: MHB, 5 × 10^5 CFU/mL, 18 h, 35 °C, triplicate
Text: (§1) The antibacterial activity of the peptides was initially assessed on a panel of representative Gram-positive and Gram-negative organisms of high clinical relevance and commonly responsible for bacterial infections in both animals and humans. Bacillus subtilis ATCC 6633 (Bsu) was also included as a rod-shaped model Gram-positive organism. This first panel comprised: Enterococcus faecalis ATCC 29212 (Efa); Streptococcus pyogenes ATCC 12344 (Spy); and Staphylococcus aureus ATCC 25923 (Sau); Gram-negative: Escherichia coli CCUGT (Eco), Klebsiella pneumoniae ATCC 13833 (Kpn), Acinetobacter baumannii ATCC 17978 (Aba), and Pseudomonas aeruginosa ATCC 27853 (Pae) (Table 2). Both the minimum inhibitory concentration (MIC, Table 2) and the minimum bactericidal concentration (MBC, Table S1, Supporting Material) were determined.
(§2) The minimum inhibitory concentration (MIC) and the minimum bactericidal concentration (MBC) of the compounds were determined in triplicate using Mueller–Hinton broth (MHB). […] Therefore, we decided to dissolve all peptides in DMSO to a final concentration of 25 mg/mL, for consistency. The bacteria inoculum was 5 × 10^5 CFU/mL, as recommended by CLSI (Document M07-A10, 2015). […] Reference-type strains, including representatives of both Gram-positive bacteria (Bacillus subtilis ATCC 6633, Enterococcus faecalis ATCC 29212, Staphylococcus aureus ATCC 25923, the methicillin-resistant Staphylococcus aureus ATCC 43300 (MRSA), Streptococcus pyogenes ATCC 12344) and Gram-negative bacteria (Escherichia coli CCUGT, Klebsiella pneumoniae ATCC 13833, Pseudomonas aeruginosa ATCC 27853, and Acinetobacter baumannii ATCC 17978), were acquired from ATCC or CCUG culture collections. Other antibiotic-resistant clinical isolates were present in our collection at the University Teaching Hospital (Azienda Ospedaliero-Universitaria Senese ‘Santa Maria alle Scotte’) in Siena, Tuscany, Italy. Specifically, MDR carbapenem-hydrolyzing class D β-lactamase-producing Acinetobacter baumannii and metallo-β-lactamase-producing Pseudomonas aeruginosa were used in this study (Table 4).

[3] = test system: Bacillus subtilis ATCC 6633
Text: as §1, §2

[4] = test system: Enterococcus faecalis ATCC 29212
Text: as §1, §2

[5] = test system: Escherichia coli CCUGT; details: 18 h; for MIC Eco: MHB, 5 × 10^5 CFU/mL, 35 °C, triplicate
Text: as §1, §2

[6] = test system: Klebsiella pneumoniae ATCC 13833; details: for MIC Kpn: MHB, 5 × 10^5 CFU/mL, 18 h, 35 °C, triplicate
Text: as §1, §2

[7] = test system: Pseudomonas aeruginosa ATCC 27853; details: for MIC Pae: MHB, 5 × 10^5 CFU/mL, 18 h, 35 °C, triplicate
Text: as §1, §2

[8] = test system: Staphylococcus aureus ATCC 25923
Text: as §1, §2

[9] = test system: Streptococcus pyogenes ATCC 12344
Text: as §1, §2

[10] = test system: S. aureus ATCC 43300 (MRSA); details: MHB, 5 × 10^5 CFU/mL, 18 h, 35 °C, triplicate
Protocol: as §2

[11] = MHB, 5 × 10^5 CFU/mL, 18 h, 35 °C, triplicate

| Compound | Hemolysis (d, diameter of hemolysis zone) [1] [mm] | MIC Aba [2] [µg/mL] | MIC Bsu [3, 11] [µg/mL] | MIC Efa [4, 11] [µg/mL] | MIC Eco [5] [µg/mL] | MIC Kpn [6] [µg/mL] | MIC Pae [7] [µg/mL] | MIC Sau [8, 11] [µg/mL] | MIC Spy [9, 11] [µg/mL] | Hemolysis (class) [1] | MBC Bsu [3, 11] [µg/mL] | MBC Efa [4, 11] [µg/mL] | MBC Spy [9, 11] [µg/mL] | further results |
| --- | --- | --- | --- | --- | --- | --- | --- | --- | --- | --- | --- | --- | --- | --- |
| Triton X-100 [reference compound] | 13 |  |  |  |  |  |  |  |  |  |  |  |  |  |
| CCCCCCCC(=O)NC(C)(C)C(=O)N[C@@H](CCCCN)C(=O)N[C@@H](CC(C)C)C(=O)N[C@@H](CC(C)C)C(N)=O [Peptide 15, 1-Oct-Aib-Lys-Leu-Leu-NH2] (Octanoyl-[Aib]KLL-NH2) | 5 | 64 (≈ 110 µM) | 16 (≈ 27.5 µM) | 32 (≈ 54.9 µM) | 64 (≈ 110 µM) | 64 (≈ 110 µM) | 64 (≈ 110 µM) | 64 (≈ 110 µM) | 16 (≈ 27.5 µM) |  |  |  |  | MBC Aba ([2]; ATCC 17978, 18 h): 128 µg/mL (≈ 220 µM); MBC Bsu ([3]; ATCC 6633, 18 h): 32 µg/mL (≈ 54.9 µM); MBC Efa ([4]; ATCC 29212, 18 h): 32 µg/mL (≈ 54.9 µM); MBC Eco ([5]; CCUGT): > 128 µg/mL; MBC Kpn ([6]; ATCC 13833, 18 h): > 128 µg/mL; MBC Pae ([7]; ATCC 27853, 18 h): > 128 µg/mL; MBC Sau ([8]; ATCC 25923, 18 h): > 128 µg/mL; MBC Spy ([9]; ATCC 12344, 18 h): 16 µg/mL (≈ 27.5 µM) |
| CCCCCCCC(=O)NC(C)(C)C(=O)NCC(=O)N[C@@H](CC(C)C)C(=O)NC(C)(C)C(=O)NCC(=O)NCC(=O)N[C@@H](CC(C)C)C(=O)NC1(C(=O)NCC(=O)N[C@H](C(=O)N[C@@H](CC(C)C)C(N)=O)[C@@H](C)CC)CCNCC1 [Peptide 8, 1-Oct-Aib-Gly-Leu-Aib-Gly-Gly-Leu-Api-Gly-Ile-Leu-NH2] (Octanoyl-[Aib]GL[Aib]GGL[Api]GIL-NH2) | 7 | > 128 | 32 (≈ 28.6 µM) | 16 (≈ 14.3 µM) | > 128 | > 128 | > 128 | > 128 | 16 (≈ 14.3 µM) | + |  |  |  | Hemolytic activity (in words) [1]: hemolytic activity |
| CCCCCCCC(=O)NC(C)(C)C(=O)NCC(=O)N[C@@H](CC(C)C)C(=O)N[C@@H](CC(C)C)C(=O)NCC(=O)NCC(=O)N[C@@H](CC(C)C)C(=O)NC(C)(C)C(=O)NCC(=O)N[C@H](C(=O)N[C@@H](CC(C)C)C(N)=O)[C@@H](C)CC [Peptide 3, 1-Oct-Aib-Gly-Leu-Leu-Gly-Gly-Leu-Aib-Gly-Ile-Leu-NH2] (Octanoyl-[Aib]GLLGGL[Aib]GIL-NH2) |  | > 128 | > 128 | > 128 | > 128 | > 128 | > 128 | > 128 | > 128 | - |  |  |  | Hemolytic activity (in words) [1]: no hemolysis detected |
| CCCCCCCC(=O)NC(C)(C)C(=O)NCC(=O)N[C@@H](CC(C)C)C(=O)NC(C)(C)C(=O)NCC(=O)NCC(=O)N[C@@H](CC(C)C)C(=O)NC(C)(C)C(=O)NCC(=O)N[C@H](C(=O)N[C@H](CO)CC(C)C)[C@@H](C)CC [Peptide 0, Trichogin GA IV, reference compound] (Octanoyl-[Aib]GL[Aib]GGL[Aib]GI[Leu(ol)]) |  | > 128 | 16 (≈ 15 µM) | 16 (≈ 15 µM) | > 128 | > 128 | > 128 | > 128 | 16 (≈ 15 µM) | - | 32 (≈ 30 µM) | 32 (≈ 30 µM) | 16 (≈ 15 µM) |  |
| CCCCCCCC(=O)NC(C)(C)C(=O)NCC(=O)N[C@@H](CC(C)C)C(=O)NC(C)(C)C(=O)N[C@@H](CCCCN)C(=O)NC(C)(C)C(=O)N[C@@H](CC(C)C)C(=O)NC(C)(C)C(=O)NCC(=O)N[C@H](C(=O)N[C@@H](CC(C)C)C(N)=O)[C@@H](C)CC [Peptide 6b, 1-Oct-Aib-Gly-Leu-Aib-Lys-Aib-Leu-Aib-Gly-Ile-Leu-NH2] (Octanoyl-[Aib]GL[Aib]K[Aib]L[Aib]GIL-NH2) |  | > 128 | 128 (≈ 109 µM) | 128 (≈ 109 µM) | > 128 | > 128 | > 128 | 128 (≈ 109 µM) | 8 (≈ 6.79 µM) | - | 128 (≈ 109 µM) | 128 (≈ 109 µM) | 32 (≈ 27.2 µM) | MBC Sau [8, 11]: 128 µg/mL (≈ 109 µM) |
| CCCCCCCC(=O)NC(C)(C)C(=O)NCC(=O)N[C@@H](CC(C)C)C(=O)NC(C)(C)C(=O)N[C@@H](CCCCN)C(=O)NC(C)(C)C(=O)N[C@@H](CC(C)C)C(=O)NC(C)(C)C(=O)NCC(=O)N[C@H](C(=O)N[C@H](CO)CC(C)C)[C@@H](C)CC [Peptide 6, 1-Oct-Aib-Gly-Leu-Aib-Lys-Aib-Leu-Aib-Gly-Ile-Lol] (Octanoyl-[Aib]GL[Aib]K[Aib]L[Aib]GI[Leu(ol)]) | 4 | > 128 | 8 (≈ 6.86 µM) | 8 (≈ 6.86 µM) | > 128 | > 128 | > 128 | 8 (≈ 6.86 µM) | 8 (≈ 6.86 µM) | + | 16 (≈ 13.7 µM) | 8 (≈ 6.86 µM) | 8 (≈ 6.86 µM) | MBC Sau [8, 11]: 16 µg/mL (≈ 13.7 µM); MBC S. aureus ATCC 43300 (MRSA) [10]: 8 µg/mL (≈ 6.86 µM); MIC S. aureus ATCC 43300 (MRSA) [10]: 4 µg/mL (≈ 3.43 µM) |
